In this series the test system is CCRIS mutagenicity, Ames/micronucleus/aberration tests. The series can be described thus: CCRIS mutagenicity studies.
[1] abbreviates: Test System: AMES SALMONELLA TYPHIMURIUM, Strain/Indicator: TA98, Metabolic Activation: NONE, Method: PREINCUBATION
[2] abbreviates: Test System: AMES SALMONELLA TYPHIMURIUM, Strain/Indicator: TA100, Metabolic Activation: NONE, Method: PREINCUBATION
[3] abbreviates: Test System: AMES SALMONELLA TYPHIMURIUM, Strain/Indicator: TA1535, Metabolic Activation: NONE, Method: PREINCUBATION
Setting [4] is: Test System: AMES SALMONELLA TYPHIMURIUM, Strain/Indicator: TA1537, Metabolic Activation: NONE, Method: PREINCUBATION
The mark [5] stands for this setting: Test System: AMES SALMONELLA TYPHIMURIUM, Strain/Indicator: TA98, Metabolic Activation: NONE, Method: STANDARD PLATE.
The mark [6] stands for this setting: Test System: AMES SALMONELLA TYPHIMURIUM, Strain/Indicator: TA100, Metabolic Activation: NONE, Method: STANDARD PLATE.

Calls of active or inactive are those of the source. How the calls were made is not given here.

In the case of `CC(CCN(C)C)N(C)C` (stereo unspecified), the mutagenic call was “inactive; negative” (Test System: AMES SALMONELLA TYPHIMURIUM, Strain/Indicator: TA98, Metabolic Activation: HAMSTER, LIVER, S-9, AROCLOR 1254 (10%), Method: PREINCUBATION); “inactive; negative” under setting [1]; “inactive; negative” (Test System: AMES SALMONELLA TYPHIMURIUM, Strain/Indicator: TA98, Metabolic Activation: RAT, LIVER, S-9, AROCLOR 1254 (10%), Method: PREINCUBATION); “inactive; negative” (Test System: AMES SALMONELLA TYPHIMURIUM, Strain/Indicator: TA98, Metabolic Activation: RAT, LIVER, S-9, PCB, Method: PREINCUBATION); “inactive; negative” (Test System: AMES SALMONELLA TYPHIMURIUM, Strain/Indicator: TA100, Metabolic Activation: HAMSTER, LIVER, S-9, AROCLOR 1254 (10%), Method: PREINCUBATION); “inactive; negative” under setting [2]. The mutagenic call by setting is: (Test System: AMES SALMONELLA TYPHIMURIUM, Strain/Indicator: TA100, Metabolic Activation: RAT, LIVER, S-9, AROCLOR 1254 (10%), Method: PREINCUBATION) “inactive; negative”; (Test System: AMES SALMONELLA TYPHIMURIUM, Strain/Indicator: TA100, Metabolic Activation: RAT, LIVER, S-9, PCB, Method: PREINCUBATION) “inactive; negative”; (Test System: AMES SALMONELLA TYPHIMURIUM, Strain/Indicator: TA1535, Metabolic Activation: HAMSTER, LIVER, S-9, AROCLOR 1254 (10%), Method: PREINCUBATION) “inactive; negative”; under setting [3], “inactive; negative”; (Test System: AMES SALMONELLA TYPHIMURIUM, Strain/Indicator: TA1535, Metabolic Activation: RAT, LIVER, S-9, AROCLOR 1254 (10%), Method: PREINCUBATION) “inactive; negative”; (Test System: AMES SALMONELLA TYPHIMURIUM, Strain/Indicator: TA1537, Metabolic Activation: HAMSTER, LIVER, S-9, AROCLOR 1254 (10%), Method: PREINCUBATION) “inactive; negative”. Also, the mutagenic call under setting [4] is “inactive; negative” and the mutagenic call (Test System: AMES SALMONELLA TYPHIMURIUM, Strain/Indicator: TA1537, Metabolic Activation: RAT, LIVER, S-9, AROCLOR 1254 (10%), Method: PREINCUBATION) is “inactive; negative”.

For the compound `c1ccc(CSSCc2ccccc2)cc1`, the mutagenic call (Test System: AMES SALMONELLA TYPHIMURIUM, Strain/Indicator: TA97, Metabolic Activation: NONE, Method: STANDARD PLATE) was “inactive; negative”; the mutagenic call (Test System: AMES SALMONELLA TYPHIMURIUM, Strain/Indicator: TA97, Metabolic Activation: S-9, Method: STANDARD PLATE) is “inactive; negative”; the mutagenic call under setting [5] is “inactive; negative”; the mutagenic call (Test System: AMES SALMONELLA TYPHIMURIUM, Strain/Indicator: TA98, Metabolic Activation: S-9, Method: STANDARD PLATE) was “inactive; negative”; the mutagenic call under setting [6] was “inactive; negative”; the mutagenic call (Test System: AMES SALMONELLA TYPHIMURIUM, Strain/Indicator: TA100, Metabolic Activation: S-9, Method: STANDARD PLATE) was “inactive; negative”. The mutagenic call was “active; positive” (Test System: AMES SALMONELLA TYPHIMURIUM, Strain/Indicator: TA102, Metabolic Activation: NONE, Method: STANDARD PLATE) and “active; positive” (Test System: AMES SALMONELLA TYPHIMURIUM, Strain/Indicator: TA102, Metabolic Activation: S-9, Method: STANDARD PLATE).

Turning to `CNN(C)c1ccn([C@@H]2O[C@H](CO)[C@@H](O)[C@H]2O)c(=O)n1`, the mutagenic call (Test System: CHINESE HAMSTER V-79, Strain/Indicator: V-79/6-THIOGUANINE, Metabolic Activation: NONE, Method: REPLATING) was “inactive; negative”.

In the case of `CC(=O)O[C@@H]1[C@@H](O)[C@H]2O[C@@H]3C=C(C)C(=O)[C@@H](O)[C@]3(CO)[C@]1(C)[C@]21CO1`, the mutagenic call under setting [5] was “inactive; negative”; the mutagenic call (Test System: AMES SALMONELLA TYPHIMURIUM, Strain/Indicator: TA98, Metabolic Activation: RAT LIVER S-9, DELOREM 103, Method: STANDARD PLATE) was “inactive; negative”; the mutagenic call under setting [2] was “inactive; negative”; the mutagenic call under setting [6] was “inactive; negative”; the mutagenic call (Test System: AMES SALMONELLA TYPHIMURIUM, Strain/Indicator: TA100, Metabolic Activation: RAT LIVER S-9, DELOREM 103, Method: STANDARD PLATE) is “inactive; negative”; the mutagenic call (Test System: AMES SALMONELLA TYPHIMURIUM, Strain/Indicator: TA100, Metabolic Activation: RAT, LIVER, S-9, PHENOBARBITAL, Method: PREINCUBATION) is “inactive; negative”.

Consider `Cc1cc(S(=O)(=O)O)c2c(C)ccc(C(C)C)cc1-2`, for which the mutagenic call was “inactive; negative” (Test System: AMES SALMONELLA TYPHIMURIUM, Strain/Indicator: TA98, Metabolic Activation: NONE); “inactive; negative” (Test System: AMES SALMONELLA TYPHIMURIUM, Strain/Indicator: TA98, Metabolic Activation: S-9); “inactive; negative” (Test System: AMES SALMONELLA TYPHIMURIUM, Strain/Indicator: TA100, Metabolic Activation: NONE); “inactive; negative” (Test System: AMES SALMONELLA TYPHIMURIUM, Strain/Indicator: TA100, Metabolic Activation: S-9); “inactive; negative” (Test System: AMES SALMONELLA TYPHIMURIUM, Strain/Indicator: TA1535, Metabolic Activation: NONE); “inactive; negative” (Test System: AMES SALMONELLA TYPHIMURIUM, Strain/Indicator: TA1535, Metabolic Activation: S-9). In addition, the mutagenic call reads like this: (Test System: AMES SALMONELLA TYPHIMURIUM, Strain/Indicator: TA1537, Metabolic Activation: NONE) “inactive; negative”; (Test System: AMES SALMONELLA TYPHIMURIUM, Strain/Indicator: TA1537, Metabolic Activation: S-9) “inactive; negative”; (Test System: E. COLI, Strain/Indicator: WP2 UVRA, Metabolic Activation: NONE) “inactive; negative”; (Test System: E. COLI, Strain/Indicator: WP2 UVRA, Metabolic Activation: S-9) “inactive; negative”.

For `CC(=O)c1cc(NC(N)=O)ccc1OCC(O)CNC(C)(C)C` (stereo unspecified), the mutagenic call is “inactive; negative” under setting [1]; “inactive; negative” (Test System: AMES SALMONELLA TYPHIMURIUM, Strain/Indicator: TA98, Metabolic Activation: RAT, LIVER, S-9, AROCLOR 1254 (10 OR 50 µL/PLATE), Method: PREINCUBATION); “inactive; negative” under setting [2]; “active; positive” (Test System: AMES SALMONELLA TYPHIMURIUM, Strain/Indicator: TA100, Metabolic Activation: RAT, LIVER, S-9, AROCLOR 1254 (10 OR 50 µL/PLATE ), Method: PREINCUBATION); “inactive; negative” under setting [3]; “active; positive” (Test System: AMES SALMONELLA TYPHIMURIUM, Strain/Indicator: TA1535, Metabolic Activation: RAT, LIVER, S-9, AROCLOR 1254 (10 OR 50 µL/PLATE), Method: PREINCUBATION). In addition, the mutagenic call was “inactive; negative” under setting [4]; “inactive; negative” (Test System: AMES SALMONELLA TYPHIMURIUM, Strain/Indicator: TA1537, Metabolic Activation: RAT, LIVER, S-9, AROCLOR 1254 (10 OR 50 µL/PLATE), Method: PREINCUBATION); “inactive; negative” (Test System: E. COLI, Strain/Indicator: WP2 UVRA, Metabolic Activation: NONE, Method: PREINCUBATION); “inactive; negative” (Test System: E. COLI, Strain/Indicator: WP2 UVRA, Metabolic Activation: RAT, LIVER, S-9, AROCLOR 1254 (10 OR 50 µL/PLATE), Method: PREINCUBATION).

For the compound `N.NC1CCCC1.O=C([O-])CC(O)C(=O)[O-].[Pt+2]` (stereo unspecified), under “End Point: IN VIVO MICRONUCLEUS, Test System: BONE MARROW, Species: MOUSE, Strain/Sex: WILD TYPE/MALE, Route: INTRAPERITONEAL”, the mutagenic call is “active; positive”.

Turning to `CCCCCCC(C)(C)C(=O)OCC1CO1` (stereo unspecified), the mutagenic call by setting is: (Test System: AMES SALMONELLA TYPHIMURIUM, Strain/Indicator: TA100, Metabolic Activation: HAMSTER, LIVER, S-9, AROCLOR 1254 (30%), Method: PREINCUBATION) “active; positive”; under setting [2], “inactive; negative”; (Test System: AMES SALMONELLA TYPHIMURIUM, Strain/Indicator: TA100, Metabolic Activation: RAT, LIVER, S-9, AROCLOR 1254 (30%), Method: PREINCUBATION) “active; positive”; (Test System: AMES SALMONELLA TYPHIMURIUM, Strain/Indicator: TA1535, Metabolic Activation: HAMSTER, LIVER, S-9, AROCLOR 1254 (30%), Method: PREINCUBATION) “active; positive”; under setting [3], “inactive; negative”; (Test System: AMES SALMONELLA TYPHIMURIUM, Strain/Indicator: TA1535, Metabolic Activation: RAT, LIVER, S-9, AROCLOR 1254 (30%), Method: PREINCUBATION) “active; positive”.

The values are drawn from PubChem BioAssay AID1259407 (Chemical Carcinogenesis Research Information System (CCRIS), 2018).
